Data on six compounds can be found in ChEMBL document CHEMBL5550142, “From lab to nature: Recent advancements in the journey of gastroprotective agents from medicinal chemistry to phytotherapy” (Eur J Med Chem, 2024).

For data set [1], the target named is T1, Gastrin/cholecystokinin type B receptor (Homo sapiens, UniProt P32239).
T1 sequence (P32239 whole entry): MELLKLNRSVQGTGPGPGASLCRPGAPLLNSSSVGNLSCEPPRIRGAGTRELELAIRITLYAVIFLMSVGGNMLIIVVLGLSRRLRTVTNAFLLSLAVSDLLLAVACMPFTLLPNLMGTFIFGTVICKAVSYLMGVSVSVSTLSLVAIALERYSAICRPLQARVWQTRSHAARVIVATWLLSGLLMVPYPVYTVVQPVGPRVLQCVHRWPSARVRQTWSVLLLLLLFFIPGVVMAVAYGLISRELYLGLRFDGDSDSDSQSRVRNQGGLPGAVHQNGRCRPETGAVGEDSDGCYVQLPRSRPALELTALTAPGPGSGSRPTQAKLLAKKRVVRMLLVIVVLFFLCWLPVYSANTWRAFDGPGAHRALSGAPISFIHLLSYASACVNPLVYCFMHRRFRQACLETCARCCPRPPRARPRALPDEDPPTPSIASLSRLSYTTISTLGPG
Kind of data set: Antagonist activity at human CCKBR. It counts as functional.

Data set [2] concerns Rattus norvegicus. Nature of the data set: Gastric ulcerogenic activity in ethanol-induced rat model assessed as reduction in mucosal damage at 50 mg/kg, po relative to control. It counts as functional. Also on record: scale not given: the % may be the effect or the level left.
Data set [3] has as its system Mus musculus. Nature of the data set: Anti-ulcerogenic activity in ethanol-induced gastric ulcer mouse model assessed as reduction in ulcer formation at 350 mg/kg. Format: functional. Also noted: scale not given: the % may be the effect or the level left.
Data set [4] concerns Rattus norvegicus. Kind of data set: Protection against stress-induced Wistar rat model assessed as inhibition of gastric lesion at 500 ug/kg, po measured after 6 hrs relative to control. Format: functional. Also on record: scale not given: the % may be the effect or the level left.
The subject of data set [5] is Helicobacter pylori. Nature of the data set: Antibacterial activity against Helicobacter pylori NCTC 11637 assessed as reduction in bacterial growth incubated for 24 hrs by broth micro-dilution method. It counts as functional. For orientation: Dilution methods test growth across graded concentrations, often in twofold steps.
The subject of data set [6] is Helicobacter pylori. Kind of data set: Antibacterial activity against Helicobacter pylori ATCC 43504 assessed as reduction in bacterial growth incubated for 24 hrs by broth micro-dilution method. It counts as functional.
Data set [7] is described as follows: Acute toxicity in po dosed mouse assessed as lethal dose. It counts as organism-based. To be noted: in vivo.
For data set [8], the target named is T2, Polyunsaturated fatty acid lipoxygenase ALOX15 (Homo sapiens, UniProt P16050).
T2 sequence (P16050 whole entry): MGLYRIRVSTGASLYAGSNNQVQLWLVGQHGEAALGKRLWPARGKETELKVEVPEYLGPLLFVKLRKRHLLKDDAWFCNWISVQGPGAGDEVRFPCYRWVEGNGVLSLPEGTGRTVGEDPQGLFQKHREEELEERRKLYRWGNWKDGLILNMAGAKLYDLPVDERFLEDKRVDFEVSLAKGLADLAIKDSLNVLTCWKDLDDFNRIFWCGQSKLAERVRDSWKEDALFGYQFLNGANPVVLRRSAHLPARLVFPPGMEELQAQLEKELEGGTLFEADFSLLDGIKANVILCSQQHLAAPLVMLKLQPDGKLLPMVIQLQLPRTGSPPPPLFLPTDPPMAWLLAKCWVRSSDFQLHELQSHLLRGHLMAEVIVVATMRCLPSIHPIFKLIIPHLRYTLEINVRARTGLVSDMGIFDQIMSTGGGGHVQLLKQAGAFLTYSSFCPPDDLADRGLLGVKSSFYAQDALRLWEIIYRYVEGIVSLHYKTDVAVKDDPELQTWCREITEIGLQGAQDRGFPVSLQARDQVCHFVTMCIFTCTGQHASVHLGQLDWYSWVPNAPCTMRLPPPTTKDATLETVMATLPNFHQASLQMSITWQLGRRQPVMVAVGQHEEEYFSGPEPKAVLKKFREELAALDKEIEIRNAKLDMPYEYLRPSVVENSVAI
Nature of the data set: Inhibition of 15-LOX (unknown origin).

Data set [9] is described as follows: Inhibition of Hydrogen potassium ATPase (unknown origin). Also noted: species or system Homo sapiens.
The test system of data set [10] is Rattus norvegicus. Kind of data set: Gastric ulcerogenic activity in ethanol-induced rat model assessed as reduction in gastric lesion at 5 mg/kg, po relative to control. It counts as functional. Also on record: scale not given: the % may be the effect or the level left.
Data set [11] has as its system Rattus norvegicus. Nature of the data set: Gastric ulcerogenic activity in ethanol-induced rat model assessed as reduction in gastric lesion at 10 mg/kg, po relative to control. Also noted: scale not given: the % may be the effect or the level left. It counts as functional.

The term pIC50 denotes −log10 of the IC50, conventionally taken in molar units. In general, MIC refers to the lowest concentration that inhibits growth of the organism. As usually defined, the LD50 is the dose expected to kill half of the subjects tested. A word on the IC50: it is the point on the concentration scale where inhibition reaches its midpoint.

The structures appear in SMILES notation. pIC50: −log10 of the molar value. Converted amounts (≈) assume the structure as drawn.

Regarding `CCCc1ccc([C@H]2N[C@@H](C(=O)OC)Cc3c2[nH]c2ccccc32)cc1`, the pIC50 in data set [1] was 4.50. The Activity in [2] and in data set [3] was 81.2% in each case.

Turning to `O=C(CSc1nc2ccccc2[nH]1)n1nc(Nc2ccc(O)cc2)cc1-c1ccccc1`, in data set [4], the Activity came to 83.1%.

For the compound `C=CCS[S+]([O-])CC=C` (stereo unspecified) [ALLICIN], the minimal inhibitory concentration (MIC) in data set [5] turned out to be 4 µg/mL (≈ 24.6 µM); in data set [6], 6 µg/mL (≈ 37 µM).

With `COc1cc(/C=N/NC(=O)Cc2ccccc2Nc2c(Cl)cccc2Cl)cc(OC)c1O`, in [7], the LD50 is 168 mg/kg.

Compound `Clc1ccc(-c2cc(-c3ccco3)no2)c(Cl)c1` gave a negative logarithm of the IC50 (pIC50) in [8] of 5.09. Moreover, the IC50 in [9] was determined as 42.41 µg/mL (≈ 151 µM).

For `CCc1c(O)c(O)c2c(c1O)C(=O)C(O)=C(O)C2=O`, the Activity came out at 73.51% in [10] and 75.5% in data set [11].
